{"source": "BindingDB's records for doi:10.1016/0006-291x(92)90654-4", "about": "(Veterans Affairs Medical Center, 1992)", "data": [{"molecular_target": "5-hydroxytryptamine receptor 1B (Homo sapiens, UniProt P28222)", "sequence (P28222 whole entry)": "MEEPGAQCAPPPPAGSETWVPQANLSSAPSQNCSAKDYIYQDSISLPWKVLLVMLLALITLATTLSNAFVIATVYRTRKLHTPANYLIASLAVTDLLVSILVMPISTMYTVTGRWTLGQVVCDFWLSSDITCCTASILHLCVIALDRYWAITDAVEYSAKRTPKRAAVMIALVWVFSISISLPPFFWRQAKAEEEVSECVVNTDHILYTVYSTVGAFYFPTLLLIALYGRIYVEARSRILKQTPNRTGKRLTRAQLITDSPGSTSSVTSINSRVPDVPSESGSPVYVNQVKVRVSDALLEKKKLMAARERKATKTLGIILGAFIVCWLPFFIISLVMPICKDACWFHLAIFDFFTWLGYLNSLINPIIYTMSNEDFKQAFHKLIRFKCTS", "units": {"Ki": "nM"}, "values": [{"smiles": "Clc1cccc(N2CCNCC2)c1", "note": "[mCPP]", "Ki": 90}, {"smiles": "CN1CCN(c2nc3cc(C(F)(F)F)ccc3n3cccc23)CC1", "note": "[CAS_109028-10-6]", "Ki": 0.04}, {"smiles": "CN1CC(C(=O)N[C@]2(C)O[C@@]3(O)C4CCCN4C(=O)[C@H](Cc4ccccc4)N3C2=O)CC2c3cccc4[nH]cc(c34)CC21", "note": "(stereo partly drawn) [7-Methyl-4,6,6a,7,8,9,10,10a-octahydro-indolo[4,3-fg]quinoline-9-carboxylic acid ((2R,5S,10bS)-5-benzyl-10b-hydroxy-2-methyl-3,6-dioxo-octahydro-oxazolo[3,2-a]pyrrolo[2,1-c]pyrazin-2-yl)-amide]", "Ki": 0.006}, {"smiles": "CN1C2CCC1CC(OC(=O)c1c[nH]c3ccccc13)C2", "note": "(stereo unspecified)", "Ki": "> 10000"}, {"smiles": "CSc1ccc2c(c1)C(N1CCN(C)CC1)Cc1ccccc1S2", "note": "(stereo unspecified) [methanesulfonic acid;1-methyl-4-(3-methylsulfanyl-5,6-dihydrobenzo[b][1]benzothiepin-5-yl)piperazine]", "Ki": 0.2}, {"smiles": "CN1C[C@@H](NS(=O)(=O)N(C)C)C[C@@H]2c3cccc4c3c(cn4C)C[C@H]21", "note": "[MESULERGINE]", "Ki": 640}, {"smiles": "Cc1cc(C(C)(C)C)c(O)c(C)c1CC1=NCCN1", "note": "[SMR000059324]", "Ki": 0.26}, {"smiles": "CC(C)(C)NCC(O)COc1cccc2[nH]c(C#N)cc12", "note": "(stereo unspecified) [NSC_155346]", "Ki": 22}, {"smiles": "FC(F)(F)c1cccc(N2CCNCC2)c1", "note": "[TFMPP]", "Ki": 28}, {"smiles": "COc1ccc2[nH]cc(C3=CCNCC3)c2c1", "note": "[5-Methoxy-3-(1,2,3,6-tetrahydro-pyridin-4-yl)-1H-indole(RU-24969)]", "Ki": 12.4}, {"smiles": "O=C(CCCN1CCC2(CC1)C(=O)NCN2c1ccccc1)c1ccc(F)cc1", "note": "[8-[4-(4-fluorophenyl)-4-oxidanylidene-butyl]-1-phenyl-1,3,8-triazaspiro[4.5]decan-4-one]", "Ki": "> 10000"}]}]}
